Assay results: PMC2666074 (Biochemistry, 2008)
Ends that are not written are not given here. Peptide text beside a SMILES is read from it.

Experiments:
[1] = biological target: T1, S100A6 (Oryctolagus cuniculus, UniProt P30801); type: binding, rabbit; details: 25 °C, pH 7.0, 10 mM Ca^2+; for heat of binding in ITC: no affinity could be measured
[2] = biological target: T1, S100A6; test: NMR titration / chemical shift perturbation, SIP; type: binding, rabbit; details: 30 °C
[3] = tested on: SCF-TBL1 E3 ligase; details: SGS domain mutant of SIP; cited from earlier work
[4] = tested on: S100A6; details: cited from earlier work

CC[C@H](C)[C@H](NC(=O)[C@H](CCCCN)NC(=O)[C@H](CCCCN)NC(=O)[C@H](CC(C)C)NC(=O)[C@@H](NC(=O)[C@H](CC(N)=O)NC(=O)[C@H](CCSC)NC(=O)[C@H](CC(C)C)NC(=O)CNC(=O)[C@H](CCC(=O)O)NC(=O)[C@H](CO)NC(=O)[C@H](CO)NC(=O)CNC(=O)[C@@H]1CCCN1C(=O)CN)C(C)C)C(=O)N[C@@H](Cc1ccc(O)cc1)C(=O)N[C@@H](CCC(=O)O)C(=O)N[C@@H](CC(=O)O)C(=O)NCC(=O)O [SIP(189–203)] (H-GPGSSEGLMNVLKKIYEDG-OH)
reduction of S100A6 binding affinity ([1]; ITC, SIP fragment vs SIP(189–219)): 4 fold

CC[C@H](C)[C@H](NC(=O)[C@H](CCCCN)NC(=O)[C@H](CCCCN)NC(=O)[C@H](CC(C)C)NC(=O)[C@@H](NC(=O)[C@H](CC(N)=O)NC(=O)[C@H](CCSC)NC(=O)[C@H](CC(C)C)NC(=O)CNC(=O)[C@H](CCC(=O)O)NC(=O)[C@H](CO)NC(=O)[C@H](CO)NC(=O)CNC(=O)[C@@H]1CCCN1C(=O)CN)C(C)C)C(=O)N[C@@H](Cc1ccc(O)cc1)C(=O)N[C@@H](CCC(=O)O)C(=O)N[C@@H](CC(=O)O)C(=O)NCC(=O)N[C@@H](CC(=O)O)C(=O)N[C@@H](CC(=O)O)C(=O)N[C@@H](CC(=O)O)C(=O)N[C@@H](CCSC)C(=O)N[C@@H](CCCCN)C(=O)N[C@@H](CCCNC(=N)N)C(=O)N[C@H](C(=O)N[C@H](C(=O)N[C@@H](CC(N)=O)C(=O)N[C@@H](CCCCN)C(=O)N[C@@H](C)C(=O)N[C@@H](Cc1c[nH]c2ccccc12)C(=O)N[C@H](C(=O)N[C@@H](CCC(=O)O)C(=O)N[C@@H](CO)C(=O)N[C@@H](CCCNC(=N)N)C(=O)O)C(C)C)[C@@H](C)CC)[C@@H](C)O [SIP(189–219)] (H-GPGSSEGLMNVLKKIYEDGDDDMKRTINKAWVESR-OH)
exchange regime of the interaction (NMR titration) ([2]; 15N-1H HSQC, pH 6.5, 10 mM Ca^2+): intermediate-fast exchange regime
binding stoichiometry by NMR ([2]; 15N-labeled S100A6 0.1 mM, 50 mM Tris pH 6.5, 10 mM Ca^2+): two SIP molecules are symmetrically bound to the S100A6 dimer

E217K: SGS domain mutant of SIP
function of the E3 ligase, in words [3]: disrupt the function of the E3 ligase

SIP L196A: full length SIP construct, substitution of Leu196 for Ala
heat of binding in ITC [1]: did not produce detectable heat changes

SIP(203–219): SIP fragment for second putative helix (GDDDMKRTINKAWVESR; not fully specified)
heat of binding in ITC [1]: did not produce any observable heat of binding

isolated SGS domain fragment: intrinsically disordered SGS (Sgt1 specific) domain (E178-F229) (EKPSYDTEADPSEGLMNVLKKIYEDGDDDMKRTINKAWVESREKQAREDTEF; left off: His-tag, N-terminal, cleaved)
Ca^2+ dependence of S100A6 binding [4]: strictly Ca^2+ dependent
S100A6 binding affinity, in words ([1]; ITC, compared with full-length SIP / SIP-SGS): very similar S100A6 binding affinities
